Data on ten compounds can be found in publication PMC8023712, “Carboxylesterase Activities and Protein Expression in Rabbit and Pig Ocular Tissues” (Molecular Pharmaceutics, 2021).

Values joined by “and” are separate entries in the source; they are usually repeats but may differ in a detail not shown here. Equal entries are not always repeated. Where two headings read alike, the source gives them in different places. A value given as a limit tells only on which side of the number the result lay.

Series [1] concerns CES2 (pig ocular tissue homogenates). To be noted: for FDA hydrolysis rate: 100 μM FDA.
Series [2] relates to CES2 (rabbit ocular tissue homogenates). To be noted: for FDA hydrolysis rate: 100 μM FDA.
For series [3], the system named is CES2 (FDA hydrolysis in pig retina). The experiment in a line: Inhibition of FDA hydrolysis in pig retina. In kind it is biochemical. To be noted: 10 μM FDA. The protocol:
Diluted samples (5 μg of protein) were incubated at 37 °C in black 96-well Thermo Scientific Nunc F96 MicroWell plates. […] The fluorescein stock solution was used to generate a standard curve (0.156–10 μM) using 2-fold serial dilutions in 0.1 M PBS, pH 7.4.
(§1) Inhibitors were tested at a final concentration range of 0.4–400 μM except for PMSF (0.3–2.5 mM).
(§2) The differences among hydrolytic activities were analyzed by ANOVA using the SigmaPlot software (Sigma Plot 13.0, Systat Software Inc., San Jose, CA), followed by Mann–Whitney U test for statistical comparisons between species and between tissues. Between species, statistically significant differences are ranked by the asterisk signs (in the order of *, p < 0.05; **, p < 0.01, and *** p < 0.001). Between tissues of the same species, statistically significant differences in comparison to conjunctiva are represented by the dagger sign (†, p < 0.05). Nonlinear regression analysis to determine the Km, Vmax, and IC50 values were done using GraphPad Prism (GraphPad, 5.04 Software Inc., San Diego, CA). For IC50, logarithms of inhibitor concentrations were plotted against the relative response (0 μM inhibitor = 100%).

Another series deals with CES2 > CES1 (HLM). Details: method as in PMID 23648675, PMID 32955894. To be noted: read-out: Ki (literature); cited from earlier work.
In the next series the test system is rhCES2. To be noted: cited from earlier work.
Series [4] deals with esterases in pig cornea homogenate (NPA hydrolysis). The experiment in a line: Inhibition of NPA hydrolysis in pig cornea. The series is classed as biochemical. To be noted: 0.1 mM NPA; for IC50: for PMSF no unique IC50, concentration giving 50% inhibition, read-out: IC50 (this study), inhibition of NPA hydrolysis. As for the experimental part: NPA hydrolysis was performed with a slight modification to our previous protocol[22] in clear flat-bottom 96-well Thermo Scientific Sterilin Microtiter plates at 37 °C. Diluted ocular samples (8 μg of protein in 80 μL of PBS) were pipetted into the reaction wells, and the background absorbance was measured at 405 nm for 10 min of preincubation. […] Changes in absorbance at 405 nm were recorded with a Victor^2 Microplate Reader (PerkinElmer Wallac 1420, St. Paul, MN) for 45 min with 90 s reading intervals. 4-Nitrophenol was used to generate a standard curve (5–400 μM).
as §1, §2

Another series concerns most esterases. To be noted: cited from earlier work.
For series [5], the system named is esterases in rabbit cornea, iris–ciliary body and aqueous humor. Details: method as in PMID 16223870. To be noted: 1000 μM; cited from earlier work.
The subject of series [6] is CES2 (rabbit ocular tissue homogenates). The experiment in a line: Procaine hydrolysis to PABA in rabbit ocular tissues. In kind it is in vitro ADME. To be noted: 100 μM procaine. The protocol: (§3) Procaine, a known human CES2 substrate,[2],[17],[50] was incubated with rabbit and pig ocular tissues. After preincubation of the substrate (100 μM procaine in 0.1 M Tris-HCl, pH 7.4) at 37 °C, the reaction was initiated with tissue samples (20 μg of protein) in a total reaction volume of 200 μL. All the samples in parallel with the controls (no substrate or no enzyme) were incubated for 50 min at 37 °C on a shaker incubator (Heidolph Titramax 1000 platform shaker, Berlin Germany). The reaction was terminated by adding 200 μL of ice-cold ACN containing the internal standard procainamide (1 μM final concentration), followed by centrifugation at 4 °C for 10 min at 10 000g. Supernatants were collected for HPLC analysis. The standard curve was established using the hydrolysis product PABA with the concentration range 0.1–1000 nM.[51]
(§4) The metabolites from the above CES2 and AADAC assays were analyzed using a Waters (Milford, MA) Acquity ultra-performance liquid chromatographic (UPLC) coupled with a Q-Exactive Focus Orbitrap MS (Thermo Scientific). A Waters HSS T3 column (2.1 mm × 100 mm, 1.8 μm particle size) was used with elution gradients A (0.1% formic acid) and B (methanol) [0–0.5 min, 1% B; 0.5–4 min, 1%–20% B; 4–4.5 min, 20%–98% B; 4.5–5 min, 98% B; and 5–6 min, 98%–1% B]. The injection volume was 2 μL with a flow rate of 0.5 mL/min and a column temperature of 40 °C. […]

Series [7] deals with CES2 (pig ocular tissue homogenates). The experiment in a line: Procaine hydrolysis to PABA in pig ocular tissues. The series is classed as in vitro ADME. To be noted: 100 μM procaine. As for the experimental part:
as §3, §4

In series [8] the target is CES1 (DME hydrolysis in pig cornea and conjunctiva) (Sus scrofa, UniProt F1RF16). The experiment in a line: Inhibition of DME hydrolysis in pig cornea and conjunctiva. The series is classed as biochemical. To be noted: 5 μM DME, at 200 μM inhibitor, read-out: Extent of inhibition of DME hydrolysis. As for the experimental part: (§5) The hydrolysis of DME was monitored with slight modifications using the published bioluminescence-based assay[13],[21] where recombinant firefly luciferase enzyme was used to detect the D-luciferin that formed in the reaction mixture. The DME hydrolysis reaction was done in white-coated 96-well plates (Thermo Scientific Sterilin Microtiter Plates). Tissue lysates (5 μg of protein) were preincubated in 0.1 M PBS, pH 6.5. The reaction was initiated by adding DME to a final concentration of 5 μM in a final volume of 200 μL. The hydrolysis of DME was allowed to proceed for 20 min at 37 °C. The formed D-luciferin was quantitated by an injection of 73 μL of the luciferase detection reagent [3 μg of rLuciferase, 50 nmol of ATP, and 50 nmol of MgCl2 in PBS], and the luminescence was measured immediately with a Victor^2 Microplate Reader (560 nm, 1 s). Serial 2-fold dilutions of D-luciferin in 0.1 M PBS, pH 6.5 were used to generate the standard curve (0.156–10 μM).
as §1
(§6) The differences among hydrolytic activities were analyzed by ANOVA using the SigmaPlot software (Sigma Plot 13.0, Systat Software Inc., San Jose, CA), followed by Mann–Whitney U test for statistical comparisons between species and between tissues. […]

Series [9] concerns CES1 (DME hydrolysis in rabbit cornea and conjunctiva). The series is described as follows: Inhibition of DME hydrolysis in rabbit cornea and conjunctiva. The series is classed as biochemical. To be noted: 5 μM DME, at 200 μM inhibitor. The protocol:
as §5, §1, §6

Series [10] relates to AADAC (pig ocular tissue homogenates). The series is described as follows: Phenacetin hydrolysis to p-phenetidine in pig ocular tissues. The series is classed as in vitro ADME. To be noted: 4 mM phenacetin, below detection limit. As for the experimental part:
(§7) Phenacetin, a specific substrate for human AADAC,[18],[19],[24] was incubated with ocular tissue homogenates. The substrate (4 mM, final concentration) was preincubated in the 0.1 M Tris-HCl, pH 7.4, buffer at 37 °C for 5 min, after which the tissue samples (20 μg of protein) were added to start the reaction in the total reaction volume of 200 μL. All the reaction and control samples were incubated for 50 min at 37 °C with shaking. The reaction was terminated by adding 200 μL of ice-cold ACN containing acetaminophen at an 1 μM final concentration as the internal standard, followed by centrifugation at 4 °C for 10 min at 10 000g. A standard curve using the metabolite p-phenetidine (0.1–100 μM)[24] was established. The protein amount and incubation time were optimized from earlier pilot experiments for both procaine and phenacetin hydrolysis reactions. All incubations were performed in triplicate including the controls (control with no sample, control with no substrate), and the data are expressed as mean ± SD.
(§8) The metabolites from the above CES2 and AADAC assays were analyzed using a Waters (Milford, MA) Acquity ultra-performance liquid chromatographic (UPLC) coupled with a Q-Exactive Focus Orbitrap MS (Thermo Scientific). […]

The subject of series [11] is AADAC (rabbit ocular tissue homogenates). The series is described as follows: Phenacetin hydrolysis to p-phenetidine in rabbit ocular tissues. In kind it is in vitro ADME. To be noted: 4 mM phenacetin, below detection limit. As for the experimental part:
as §7, §8

The term Km denotes the concentration of substrate that gives half-maximal velocity. For orientation: Ki means the dissociation constant of the complex between target and ligand, obtained from inhibition or displacement. By IC50 is commonly meant the concentration at which inhibition is half-maximal. In general, inhibition refers to how much of the control response was suppressed.

CES1 (DME hydrolysis in pig cornea and conjunctiva), sequence (F1RF16 19-530): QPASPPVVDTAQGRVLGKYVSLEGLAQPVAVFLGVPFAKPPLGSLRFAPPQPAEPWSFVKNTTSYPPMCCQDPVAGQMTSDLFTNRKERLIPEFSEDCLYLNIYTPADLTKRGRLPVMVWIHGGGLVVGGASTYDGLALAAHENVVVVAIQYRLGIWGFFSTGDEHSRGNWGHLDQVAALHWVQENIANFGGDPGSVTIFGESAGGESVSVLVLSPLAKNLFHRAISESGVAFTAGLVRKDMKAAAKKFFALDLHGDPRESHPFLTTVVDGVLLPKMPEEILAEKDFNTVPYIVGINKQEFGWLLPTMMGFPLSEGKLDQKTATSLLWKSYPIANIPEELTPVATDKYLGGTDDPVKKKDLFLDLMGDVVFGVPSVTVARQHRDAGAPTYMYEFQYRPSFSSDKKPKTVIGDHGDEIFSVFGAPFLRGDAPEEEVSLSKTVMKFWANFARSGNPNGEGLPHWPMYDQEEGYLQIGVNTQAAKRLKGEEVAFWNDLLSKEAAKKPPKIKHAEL

Consider `CC(=O)Oc1ccc2c(c1)Oc1cc(OC(C)=O)ccc1C21OC(=O)c2ccccc21` [FDA, fluorescein diacetate], for which the FDA hydrolysis rate in series [1] (most pig ocular tissues (except retina)) is < 0.1 nmol/min/mg; in series [1] (pig retina) it was 0.6 ± 0.1 nmol/min/mg; in series [2] (rabbit RPE, aqueous humor and vitreous), 0.1 to 0.2 nmol/min/mg; in series [2] (rabbit choroid, cornea and conjunctiva), > 1.0 nmol/min/mg; in series [2] (rabbit retina), 0.5 to 1 nmol/min/mg. The Km in [1] (read-out: Km (this study), FDA hydrolysis in pig retina) amounted to 16 ± 1.6 µM; in series [2] (read-out: Km (this study), FDA hydrolysis in rabbit cornea), 5.5 ± 0.4 µM.

For the compound `COc1ccc(CCN(C)CCCC(C#N)(c2ccc(OC)c(OC)c2)C(C)C)cc1OC` (centres unmarked) [verapamil], the “Extent of inhibition of FDA hydrolysis” value in [3] is given as “no inhibition”. In addition, the Ki at CES2 > CES1 (HLM) was 11.5 ± 1.2 µM; at rhCES2 (rhCES2, read-out: Ki (literature)) it was 3.84 ± 0.99 µM. Besides, in the series on rhCES2 (rhCES2, read-out: IC50 (literature)), the IC50 was 7.94 µM.

On to `O=S(=O)(F)Cc1ccccc1` [PMSF, phenylmethylsulfonyl fluoride], for which the IC50 in [4] is 200 µM and ~200 µM; in the series with most esterases (most esterases, read-out: IC50 (literature)), 541 µM; with most esterases (other tissues, read-out: reported IC50 value in other tissues), ~500 µM. Further, the Ki at most esterases (most esterases, read-out: Ki (literature)) was 560 µM.

On to `O=C(O)c1cc[c]([Hg][Cl])cc1` [p-chloromercuribenzoate], for which the “Inhibition of naphthyl acetate hydrolysis” value in series [5] is given as 10%–30%.

For the compound `CCN(CC)CCOC(=O)c1ccc(N)cc1` [procaine], the “Procaine hydrolysis rate (PABA formation)” value is 0.04 to 0.1 nmol/min/mg in [6] (rabbit aqueous humor and conjunctiva); 0.2 to 0.3 nmol/min/mg in series [6] (rabbit cornea, vitreous, RPE and choroid); 0.02 nmol/min/mg in [7] (pig aqueous humor (lowest)); 0.09 nmol/min/mg in series [7] (pig retina (highest)).

In the case of `CC(C)(C)NC[C@H](O)COc1nsnc1N1CCOCC1` [timolol], the “Extent of inhibition of FDA hydrolysis” value in series [3] is reported as “no inhibition”. Also, in the series on rhCES2 (main human enzyme CES2, at 200 μM), the “inhibition (literature, printed in IC50 column)” value is on record as 20% inhibition at 200 μM.

Regarding `C[C@@H]1CC[C@@]2(OC1)O[C@H]1[C@@H](O)[C@H]3[C@@H]4CC[C@H]5C[C@@H](O[C@@H]6O[C@H](CO)[C@H](O[C@@H]7O[C@H](CO)[C@@H](O)[C@H](O[C@@H]8OC[C@@H](O)[C@H](O)[C@H]8O)[C@H]7O[C@@H]7O[C@H](CO)[C@H](O)[C@H](O[C@@H]8O[C@H](CO)[C@@H](O)[C@H](O)[C@H]8O)[C@H]7O)[C@H](O)[C@H]6O)[C@H](O)C[C@]5(C)[C@H]4CC[C@]3(C)[C@H]1[C@@H]2C` [digitonin], the IC50 in series [4] came to 38 µM. The “Extent of inhibition of NPA hydrolysis (maximal)” value in series [4] (highest inhibitor concentration 400 μM (PMSF 2.5 mM)) was ~40%. Also, the inhibition at 200 µM in [8] turned out to be 15%. Further, in series [9], the “Extent of inhibition of DME hydrolysis” value was 30%.

For `CCOc1ccc(NC(C)=O)cc1` [phenacetin], the “Phenacetin hydrolysis rate (p-phenetidine formation)” value was “undetectable” in series [10], < 0.1 pmol/min/mg in series [10] (listed as Phenacetin), “undetectable” in series [11] and < 0.1 pmol/min/mg in [11] (listed as Phenacetin).

As for `COc1ccc([C@@H]2Sc3ccccc3N(CCN(C)C)C(=O)[C@@H]2OC(C)=O)cc1` [diltiazem], the Ki at CES2 > CES1 (HLM) was 2.89 ± 0.39 µM.

As for `O=C(O)CN(CCN(CC(=O)O)CC(=O)O)CC(=O)O` [EDTA], the “Inhibition of naphthyl acetate hydrolysis” value in [5] was 10%–30%.
